Assay results from patent publication US12023315B2, “Pharmaceutical compositions and methods utilizing neostigmine and an NK-1 antagonist for treating myasthenia gravis” (priority 2017, dated 2024).

Tested on: gastro-intestinal side effects of neostigmine in human subjects
Test: Phase I single-blind, placebo-controlled study: single oral neostigmine bromide with or without single oral aprepitant
Type: in vivo
Details: human volunteers; single oral aprepitant (up to 125 mg) co-administered with first intolerable oral dose (FID) of neostigmine bromide; follow-up up to 8 hours
Protocol: The ability of the NK1-antagonists for preventing the adverse effects of orally administered neostigmine bromide in humans is tested.
A Phase I study is conducted in human subjects receiving a single oral dose of neostigmine bromide with or without a single oral dose of aprepitant hydrochloride dihydrate, as a representative NK1-antagonist. The study is a single center, single-blind, placebo-controlled study.
To be enrolled in the study, participants are to meet the following inclusion/exclusion criteria:
Key Inclusion Criteria • 1. Male or female volunteers between the ages of 18 and 60 years inclusive are required to be in good health, to refrain from consuming xanthine, quinine and caffeine containing beverages, and to refrain from prolonged intensive physical exercise during the study conduct. • 2. […] Subjects had to be in good health according to their medical history including personal and family psychiatric history, physical examination, ECG, vital signs, and laboratory tests. […] Subjects had to be able to swallow multiple pills simultaneously.
Key Exclusion Criteria • 1. Any clinically relevant acute or chronic disease which could interfere with the subjects' safety during the trial, expose them to undue risk, or interfere with the study objectives. • 2. […]

With `C[C@@H](O[C@H]1OCCN(Cc2nc(=O)[nH][nH]2)[C@H]1c1ccc(F)cc1)c1cc(C(F)(F)F)cc(C(F)(F)F)c1` [aprepitant, 5-[[(2R,3S)-2-[(1R)-1-[3,5-bis(trifluoromethyl)phenyl]ethoxy]-3-(4-fluorophenyl)-4-morpholinyl]methyl]-1,2-dihydro-3H-1,2,4-triazol-3-one] the “occurrence of gastro-intestinal AEs with neostigmine” value was “prevents or attenuates the occurrence of gastro-intestinal AEs”.
